This note sets out measurements from PubChem BioAssay (NCI).

Each structure is given as a SMILES string.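 Tested at 5 concentrations; 48 h exposure; 96-well plates; endpoints linearly interpolated, else capped at highest concentration. At the TGI there is no net growth.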 Where only a bound is given, the exact number is not on record here.

Holding throughout (experiment): NCI anticancer screen, dose series, 48 h
For assay [1], the system named is M19-MEL melanoma.
Assay [2] concerns RXF 393 renal.
For assay [3], the system named is KM20L2 colon.
Assay [4] deals with HOP-18 NSCLC.
The subject of assay [5] is NCI-H460 lung.
For assay [6], the system named is DLD-1 colon.
Assay [7] relates to LXFL 529 NSCLC.
For assay [8], the system named is RXF-631 renal.
The test system of assay [9] is XF 498 CNS.
Assay [10] deals with DMS 114 small cell lung.
For assay [11], the system named is DMS 273 small cell lung.
The subject of assay [12] is MDA-MB-435.
The subject of assay [13] is CAKI-1 renal.
For assay [14], the system named is SNB-78 CNS.

Regarding `CCCOP1(=O)C=C(C)C(Cl)=C(C)C1` (stereo not given), the TGI was 52.7 µM in assay [1]; 57 µM in assay [2]; 88.8 µM in assay [3]; above 100 µM in assay [4]; above 100 µM in assay [5]; 96.3 µM in assay [6]. The TGI was 42.9 µM in assay [7]; above 100 µM in assay [8]; 31.4 µM in assay [9]; 46.3 µM in assay [10]; 36.7 µM in assay [11].
In the case of `CCOC(=O)NC(Nc1cccc(F)c1)(C(F)(F)F)C(F)(F)F`, the TGI in assay [12], in assay [13], in [2] and in [5] was above 100 µM throughout.
Consider `COc1ccc(/C=C/C(=N/NC(=O)N/N=C(/C=C/c2ccc(OC)cc2)C(C)C)C(C)C)cc1`, for which the TGI in assay [12], in [13], in assay [2] and in assay [5] was above 100 µM throughout.
`Cc1cccc(/C=N/NC(=S)NC2CCCCC2)n1`: the TGI in [12] is above 100 µM; in assay [13], above 100 µM; in [2] it was 76.1 µM; in [5], above 67.8 µM.
Consider `CN(C)Cc1cc(N=Nc2c(Cl)cccc2Cl)ccc1O`, for which the TGI in assay [12], in assay [13], in assay [2] and in assay [5] was above 100 µM throughout.
With `[N-]=[N+]=NC1(c2ccccc2)C(=O)c2cccc3c4ccccc4n(c23)C1=O` (stereo not given), the TGI in [12] is 92.8 µM; in assay [13], above 100 µM; in assay [2], above 100 µM; in assay [5], above 100 µM.
As for `CC12CC(=O)OC(Cc3ccccc31)O2` (stereo not given), the TGI in assay [14], in assay [1], in assay [2], in assay [3], in assay [4] and in assay [5] was above 100 µM in each case. The TGI in assay [6], in [7], in assay [9], in assay [10] and in [11] was above 100 µM each time.
In the case of `O=C(c1c(F)c(F)c(F)c(F)c1F)n1c(=O)[nH]c2ccccc21`, the TGI in [12] is 21.9 µM; in assay [13], 11.3 µM; in assay [2], 22 µM; in assay [5], 27.2 µM.
For `CCOC(=O)c1nc2cc(F)c(F)cc2nc1NCc1cc(OC)c(OC)c(OC)c1`, the TGI in assay [12], in [13], in assay [2] and in [5] was above 100 µM throughout.
Take `COc1nc(N)nc2c1n(C)c[n+]2C`: the TGI in assay [12], in assay [13], in assay [2] and in assay [5] was above 100 µM throughout.
Consider `CN1NC2=NCCN=C3NN(C)C(=NCCN=C1S2)S3`, for which the TGI in assay [14], in assay [1], in assay [2], in [3], in assay [4] and in assay [5] was above 100 µM in each case. Also, the TGI in [6], in [7] and in assay [11] was above 100 µM in each case.
As for `CC[N+](C)(C)c1ccc(C(=C2C=CC(=[N+](C)C)C=C2)c2ccc(N(C)C)cc2)cc1`, the TGI is 25 µM in assay [1]; above 100 µM in [13]; above 100 µM in assay [2]; above 100 µM in assay [4]; 22.4 µM in assay [5]; 62.4 µM in assay [6]. Also, the TGI turned out to be 34.1 µM in [7]; 38.4 µM in [8]; 33.2 µM in assay [9]; 26.7 µM in [10]; 25.6 µM in [11].
`COc1ccc2c(c1)nc1n2C(c2c(F)cccc2F)SC1` (stereo not given): the TGI in assay [12], in assay [13], in [2] and in assay [5] was above 100 µM throughout.
For the compound `NS(=O)(=O)c1ccc(NC(=S)/N=C/c2c(O)c3ccccc3[nH]c2=O)cc1`, the TGI in assay [12], in [13], in assay [2] and in [5] was above 100 µM in each case.
Consider `Cc1cccc2c1CC(C1OC(=O)c3c(C)cccc31)C2=O` (stereo not given), for which the TGI in [12], in assay [13], in assay [2] and in assay [5] was above 100 µM each time.
Take `N#Cc1c(-c2cccc(Br)c2)cc(-c2ccc(Cl)cc2)nc1N`: the TGI in assay [12] was found to be 38.2 µM; in assay [13] it was 79.1 µM; in assay [2], 34.6 µM; in assay [5], 50.8 µM.
`CC(=O)O[C@H]1CC[C@@]2(C)C(=CC[C@H]3[C@@H]4C[C@H](N5CCN(C)CC5)[C@H](OC(C)=O)[C@@]4(C)CC[C@@H]32)C1`: the TGI in assay [12] was 19.2 µM; in assay [13] it was above 66.5 µM; in [2], 40.3 µM; in [5] it was 49.4 µM.
Regarding `Cc1cc(Cl)ccc1NC(=O)/C(Cc1nc2ccc(C(=O)c3ccccc3)cc2[nH]c1=O)=N/NC(=O)c1ccncc1`, the TGI in assay [12], in assay [13], in assay [2] and in assay [5] was above 100 µM throughout.
In the case of `N/C(=N\Nc1cccc(Cl)c1)c1cccnc1`, the TGI in assay [12] was above 30.1 µM; in [13], above 100 µM; in [2], above 80.3 µM; in [5] it was above 100 µM.
`CN(C)c1ccc(/C=C(\NC(=O)c2ccccc2)c2nc3ccccc3c(=O)o2)cc1`: the TGI in assay [12], in assay [13], in [2] and in assay [5] was above 100 µM each time.
As for `O=C(/C=C/c1ccsc1)c1cccs1`, the TGI in [12] was above 10 µM; in assay [13], above 100 µM; in assay [2], 42.9 µM; in assay [5] it was above 100 µM.
For `CNc1nc2c(C)ccc3nc(N(C)C)nc-3c2n1C`, the TGI in assay [12], in [13], in [2] and in [5] was above 10 µM throughout.
Turning to `O=c1[nH]nc(Cc2ccccc2)n1N=C1CCCCC1`, the TGI in [12], in assay [13], in assay [2] and in assay [5] was above 100 µM throughout.
As for `CCCCCCCCCCCCOCCCCCCCCC/C=C/c1ccc2c(c1)OCCOCCOCCOCCO2`, the TGI was found to be 33.8 µM in assay [12], 33.5 µM in assay [13], 36.4 µM in assay [2] and 37.9 µM in assay [5].
With `COC(=O)CC(SCCO)SCCO`, the TGI in assay [12], in [13], in assay [2] and in [5] was above 100 µM throughout.
On to `Nc1nc([O-])c([I+]c2ccccc2)c(=O)[nH]1`, for which the TGI in [12], in [13], in [2] and in assay [5] was above 100 µM in each case.
